One block for each molecule: values may come before it.
How the values were obtained:
AIM2 inflammasome = target: T1, AIM2 inflammasome (Mus musculus, UniProt Q91VJ1); assay: AIM2 inflammasome activation: BMDM stimulated with LPS and transfected Poly; format: cell-based
T1 sequence (Q91VJ1 1-354): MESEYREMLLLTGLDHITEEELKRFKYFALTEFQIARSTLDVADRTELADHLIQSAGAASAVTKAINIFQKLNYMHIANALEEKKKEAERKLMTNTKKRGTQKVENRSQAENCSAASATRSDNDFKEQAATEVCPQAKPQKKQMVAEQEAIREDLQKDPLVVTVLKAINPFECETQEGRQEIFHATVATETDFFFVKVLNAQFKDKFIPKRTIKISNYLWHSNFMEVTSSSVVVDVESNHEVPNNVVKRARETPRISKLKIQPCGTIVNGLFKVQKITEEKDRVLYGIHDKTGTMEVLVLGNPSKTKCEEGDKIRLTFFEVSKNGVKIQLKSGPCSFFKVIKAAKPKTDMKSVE

Aqueous solubility = format: physicochemical; settings: sodium salt
CYP 2C19 = CYP 2C19 (Homo sapiens, UniProt P33261); assay: CYP inhibition in human liver microsomes, substrate cocktail; settings: 10 µM
CYP 2C9 = CYP 2C9 (Homo sapiens, UniProt P11712); assay: as above; settings: 10 µM
Ca2+ flux = assay: ATP induced Ca2+ flux in BMDM; settings: WT or Ice−/− BMDM
EAE = assay: Experimental autoimmune encephalomyelitis; format: in vivo, C57BL/6 mice
[1] = target: human ether-a-go-go (hERG) potassium channel (Homo sapiens, UniProt Q12809); assay: cell-based
NLRP1 [2] = format: cell-based
NLRP1 [3] = assay: Nlrp1a Q593P activating mutation mice; format: in vivo; settings: NLRP1 mutant mice, 20 mg/kg i.p. every second day for 9 days; P = 0.7
CYP 1A2 = target: T2, CYP 1A2 (Homo sapiens, UniProt P05177); assay: CYP inhibition in human liver microsomes, substrate cocktail; settings: 10 µM
T2 sequence (P05177 1-516): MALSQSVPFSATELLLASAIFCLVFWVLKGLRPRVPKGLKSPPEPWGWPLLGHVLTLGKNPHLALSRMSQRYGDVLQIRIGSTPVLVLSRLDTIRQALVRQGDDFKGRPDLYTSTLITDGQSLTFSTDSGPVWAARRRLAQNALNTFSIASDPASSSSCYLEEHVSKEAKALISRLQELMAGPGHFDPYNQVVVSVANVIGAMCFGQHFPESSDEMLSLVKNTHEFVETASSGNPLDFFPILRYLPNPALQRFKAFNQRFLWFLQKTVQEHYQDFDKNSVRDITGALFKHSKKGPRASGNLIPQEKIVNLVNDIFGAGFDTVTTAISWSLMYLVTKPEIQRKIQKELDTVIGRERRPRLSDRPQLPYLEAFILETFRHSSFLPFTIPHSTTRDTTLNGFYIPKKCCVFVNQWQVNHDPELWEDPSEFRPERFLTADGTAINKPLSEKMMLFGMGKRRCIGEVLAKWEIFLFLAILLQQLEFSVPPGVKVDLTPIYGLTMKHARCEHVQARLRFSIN

NLRC4 = NLRC4 (Mus musculus, UniProt Q3UP24); assay: NLRC4 inflammasome activation: BMDM stimulated with LPS and S. typhimurium; format: cell-based; settings: for NLRC4-stimulated IL-1β secretion / NLRC4-stimulated TNF-α secretion / expression of pro-IL-1β (and pro-caspase-1) in cell lysates: LPS and S. typhimurium; for NLRC4-stimulated IL-1β secretion / NLRC4-stimulated TNF-α secretion: MCC950 up to 10 µM, parthenolide 10 µM
[4] = Stability with human liver microsomes
CYP 3A4 = CYP 3A4 (Homo sapiens, UniProt P08684); assay: CYP inhibition in human liver microsomes, substrate cocktail; settings: 10 µM
TLR signalling = assay: Priming / TLR signalling: BMDM pre-treated and stimulated with LPS or Poly; format: cell-based, mouse; settings: for LPS-induced (TLR4) TNF-α secretion / Poly(A:U)-induced (TLR3) TNF-α secretion: BMDM, ELISA
K+ efflux = assay: Intracellular K+ by ICP-OES in BMDM; format: cell-based, mouse; settings: LPS primed BMDM, MCC950 10–300 nM
CYP 2D6 = CYP 2D6 (Homo sapiens, UniProt P10635); assay: CYP inhibition in human liver microsomes, substrate cocktail; settings: 10 µM
[5] = Stability with mouse liver microsomes
[6] = LPS and Poly(dA:dT), Bayer compound 40 µM

Chain of NLRC4 (Q3UP24 whole entry): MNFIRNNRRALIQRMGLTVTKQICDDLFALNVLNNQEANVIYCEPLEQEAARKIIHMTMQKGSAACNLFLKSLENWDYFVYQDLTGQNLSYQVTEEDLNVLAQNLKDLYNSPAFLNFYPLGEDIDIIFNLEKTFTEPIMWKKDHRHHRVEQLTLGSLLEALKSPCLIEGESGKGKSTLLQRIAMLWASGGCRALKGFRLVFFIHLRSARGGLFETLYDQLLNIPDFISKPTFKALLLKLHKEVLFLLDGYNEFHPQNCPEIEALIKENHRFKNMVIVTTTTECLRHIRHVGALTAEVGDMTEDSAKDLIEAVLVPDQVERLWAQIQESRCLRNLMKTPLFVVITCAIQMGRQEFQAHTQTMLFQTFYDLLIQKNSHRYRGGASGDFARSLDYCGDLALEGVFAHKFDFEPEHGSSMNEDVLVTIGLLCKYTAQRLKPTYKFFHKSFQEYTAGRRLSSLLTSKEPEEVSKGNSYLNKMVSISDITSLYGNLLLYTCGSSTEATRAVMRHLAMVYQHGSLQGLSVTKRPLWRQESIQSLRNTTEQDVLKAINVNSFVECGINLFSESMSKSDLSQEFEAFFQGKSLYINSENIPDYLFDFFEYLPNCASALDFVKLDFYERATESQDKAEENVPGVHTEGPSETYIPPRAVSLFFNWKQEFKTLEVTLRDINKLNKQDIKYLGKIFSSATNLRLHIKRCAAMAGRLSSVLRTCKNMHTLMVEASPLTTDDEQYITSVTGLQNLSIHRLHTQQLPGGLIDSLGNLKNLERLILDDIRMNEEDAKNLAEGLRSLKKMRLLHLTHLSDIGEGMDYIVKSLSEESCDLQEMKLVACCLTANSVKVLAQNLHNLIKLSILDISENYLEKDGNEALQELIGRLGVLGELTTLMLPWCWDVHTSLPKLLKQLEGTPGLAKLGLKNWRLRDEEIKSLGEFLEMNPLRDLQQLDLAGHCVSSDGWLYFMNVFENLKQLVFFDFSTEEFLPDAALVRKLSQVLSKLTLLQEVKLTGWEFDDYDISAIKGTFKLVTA
Chain of CYP 2C19 (P33261 whole entry): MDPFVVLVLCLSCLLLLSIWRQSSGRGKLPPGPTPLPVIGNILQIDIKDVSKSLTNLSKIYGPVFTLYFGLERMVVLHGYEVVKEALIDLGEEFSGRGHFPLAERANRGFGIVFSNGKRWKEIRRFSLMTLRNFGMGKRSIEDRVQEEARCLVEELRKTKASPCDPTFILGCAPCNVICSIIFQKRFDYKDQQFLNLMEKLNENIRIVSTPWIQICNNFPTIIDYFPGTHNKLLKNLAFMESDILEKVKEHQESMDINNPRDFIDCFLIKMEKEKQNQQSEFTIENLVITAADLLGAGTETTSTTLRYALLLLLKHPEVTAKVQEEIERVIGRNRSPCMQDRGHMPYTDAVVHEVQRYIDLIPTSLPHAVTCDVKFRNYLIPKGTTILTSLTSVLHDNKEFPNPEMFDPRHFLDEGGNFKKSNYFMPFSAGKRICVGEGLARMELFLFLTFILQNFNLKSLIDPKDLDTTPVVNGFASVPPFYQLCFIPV
Chain of CYP 2D6 (P10635 whole entry): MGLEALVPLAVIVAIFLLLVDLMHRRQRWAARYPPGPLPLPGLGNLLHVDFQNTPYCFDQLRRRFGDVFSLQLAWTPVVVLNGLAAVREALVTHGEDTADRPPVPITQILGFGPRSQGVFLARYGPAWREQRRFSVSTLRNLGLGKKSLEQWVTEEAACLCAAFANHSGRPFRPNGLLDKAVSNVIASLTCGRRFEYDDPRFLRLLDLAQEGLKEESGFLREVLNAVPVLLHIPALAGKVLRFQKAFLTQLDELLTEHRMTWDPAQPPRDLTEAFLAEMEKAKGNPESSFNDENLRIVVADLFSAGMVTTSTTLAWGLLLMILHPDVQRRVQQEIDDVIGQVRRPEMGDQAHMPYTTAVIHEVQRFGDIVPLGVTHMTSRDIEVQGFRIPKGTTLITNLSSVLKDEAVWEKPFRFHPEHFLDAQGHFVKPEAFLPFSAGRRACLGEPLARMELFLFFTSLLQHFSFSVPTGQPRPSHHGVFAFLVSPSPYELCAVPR
Chain of CYP 2C9 (P11712 whole entry): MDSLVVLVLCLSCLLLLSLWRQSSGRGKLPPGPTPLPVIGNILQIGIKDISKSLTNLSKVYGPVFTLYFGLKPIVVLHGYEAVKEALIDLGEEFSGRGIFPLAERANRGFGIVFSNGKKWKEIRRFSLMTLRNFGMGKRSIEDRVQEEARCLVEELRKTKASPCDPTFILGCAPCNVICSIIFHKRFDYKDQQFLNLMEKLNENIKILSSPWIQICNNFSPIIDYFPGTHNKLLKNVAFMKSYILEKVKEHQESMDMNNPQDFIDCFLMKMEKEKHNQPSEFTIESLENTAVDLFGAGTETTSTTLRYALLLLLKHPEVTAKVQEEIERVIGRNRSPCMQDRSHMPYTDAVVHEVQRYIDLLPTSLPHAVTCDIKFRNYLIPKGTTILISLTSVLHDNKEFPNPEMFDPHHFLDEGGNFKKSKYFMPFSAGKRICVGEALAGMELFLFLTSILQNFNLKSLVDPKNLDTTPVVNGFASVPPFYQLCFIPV
Chain of human ether-a-go-go (hERG) potassium channel (Q12809 whole entry): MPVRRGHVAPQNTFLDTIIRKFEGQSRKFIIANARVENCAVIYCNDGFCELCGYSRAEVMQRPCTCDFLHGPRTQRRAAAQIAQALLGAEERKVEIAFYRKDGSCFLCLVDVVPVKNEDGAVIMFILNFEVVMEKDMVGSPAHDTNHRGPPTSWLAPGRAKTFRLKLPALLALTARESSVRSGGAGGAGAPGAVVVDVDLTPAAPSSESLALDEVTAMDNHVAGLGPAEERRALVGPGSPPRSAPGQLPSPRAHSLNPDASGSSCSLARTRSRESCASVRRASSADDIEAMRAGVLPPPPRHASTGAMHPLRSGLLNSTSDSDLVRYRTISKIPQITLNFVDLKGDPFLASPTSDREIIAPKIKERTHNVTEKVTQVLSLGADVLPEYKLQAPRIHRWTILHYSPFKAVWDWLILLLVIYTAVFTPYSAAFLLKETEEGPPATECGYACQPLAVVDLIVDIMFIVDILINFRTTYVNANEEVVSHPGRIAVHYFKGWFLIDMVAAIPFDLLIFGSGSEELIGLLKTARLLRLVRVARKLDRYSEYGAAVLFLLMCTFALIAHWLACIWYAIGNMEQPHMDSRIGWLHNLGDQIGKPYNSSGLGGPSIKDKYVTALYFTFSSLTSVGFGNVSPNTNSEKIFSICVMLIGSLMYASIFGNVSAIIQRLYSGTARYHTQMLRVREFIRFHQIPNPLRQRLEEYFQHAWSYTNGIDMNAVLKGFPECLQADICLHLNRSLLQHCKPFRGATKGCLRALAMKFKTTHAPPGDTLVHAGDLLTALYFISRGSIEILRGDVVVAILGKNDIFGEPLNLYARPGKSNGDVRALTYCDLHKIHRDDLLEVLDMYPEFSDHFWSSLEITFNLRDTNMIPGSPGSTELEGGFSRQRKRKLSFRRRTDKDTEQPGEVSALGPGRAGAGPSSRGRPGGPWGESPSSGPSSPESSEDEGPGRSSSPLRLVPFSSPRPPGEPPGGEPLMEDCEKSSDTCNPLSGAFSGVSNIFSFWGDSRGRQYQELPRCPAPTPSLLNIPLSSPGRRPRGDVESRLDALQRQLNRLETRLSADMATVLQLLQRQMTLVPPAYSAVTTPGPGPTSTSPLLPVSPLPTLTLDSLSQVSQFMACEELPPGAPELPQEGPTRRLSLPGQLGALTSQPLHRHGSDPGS
Chain of CYP 3A4 (P08684 whole entry): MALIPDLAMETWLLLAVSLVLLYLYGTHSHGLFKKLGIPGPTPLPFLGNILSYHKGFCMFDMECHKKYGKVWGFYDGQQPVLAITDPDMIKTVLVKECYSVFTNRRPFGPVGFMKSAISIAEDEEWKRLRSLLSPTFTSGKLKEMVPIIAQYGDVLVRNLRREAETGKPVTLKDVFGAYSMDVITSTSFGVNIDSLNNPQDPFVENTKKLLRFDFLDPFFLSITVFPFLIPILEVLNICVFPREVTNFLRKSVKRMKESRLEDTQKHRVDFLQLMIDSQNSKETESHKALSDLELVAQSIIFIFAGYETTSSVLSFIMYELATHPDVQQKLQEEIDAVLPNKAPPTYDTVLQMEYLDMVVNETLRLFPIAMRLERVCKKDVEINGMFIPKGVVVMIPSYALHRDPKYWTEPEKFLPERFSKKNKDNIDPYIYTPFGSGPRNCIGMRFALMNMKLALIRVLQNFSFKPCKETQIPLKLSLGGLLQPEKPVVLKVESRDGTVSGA

IL-1β secretion (AIM2 inflammasome; [6]): inhibited | Poly(dA:dT) stimulated caspase-1 activation (AIM2 inflammasome; Western blot): inhibited
Structure (SMILES): O=C(O)c1ccc(OCCCc2ccc(OCCCC3CCCCC3)cc2)c(C(=O)N2CCC(C(=O)O)CC2)c1 [Bayer compound, 1-(5-carboxy-2{3-[4-(3-cyclohexylpropoxy)phenyl]propoxy}benzoyl)piperidine-4-carboxylic acid, reference compound]

Structure (SMILES): CC(C)(O)c1coc(S(=O)(=O)[N-]C(=O)Nc2c3c(cc4c2CCC4)CCC3)c1.[Na+] [MCC950 sodium salt]
solubility in aqueous solutions (Aqueous solubility): highly soluble

Structure (SMILES): CC(C)(O)c1coc(S(=O)(=O)NC(=O)Nc2c3c(cc4c2CCC4)CCC3)c1 [MCC950, 1-(1,2,3,5,6,7-hexahydro-s-indacen-4-yl)-3-[4-(1-hydroxy-1-methyl-ethyl)-furan-2-sulfonyl]urea]
inhibition of CYP 2C19 (CYP 2C19): less than 15% | inhibition of CYP 2C9 (CYP 2C9): less than 15% | ATP induced increase in intracellular Ca2+ (Ca2+ flux): did not substantially affect | EAE onset and severity (clinical scores) (EAE; 10 mg/kg i.p. day 0, 1, 2 and every 2 days thereafter): delayed the onset and reduced the severity | frequencies of IL-17 and IFN-γ producing CD3+ T cells in brain mononuclear cells (EAE; day 22, vs PBS-treated mice): modestly reduced | IC50 [1]: > 30 µM | ASC speck formation (NLRP1 [2]): not decreased | IL-1β secretion (AIM2 inflammasome; [6]): did not attenuate | TNF-α secretion (AIM2 inflammasome; [6]): did not attenuate | serum concentrations of IL-18 (NLRP1 [3]): did not significantly alter | inhibition of CYP 1A2 (CYP 1A2): less than 15% | NLRC4-stimulated IL-1β secretion (NLRC4): not inhibited | NLRC4-stimulated TNF-α secretion (NLRC4): not inhibited | expression of pro-IL-1β (and pro-caspase-1) in cell lysates (NLRC4; Western blot): not substantially affected | caspase-1 activation / IL-1β processing in response to S. typhimurium (NLRC4; Western blot): did not inhibit | compound remaining after 60 min [4]: more than 70% | inhibition of CYP 3A4 (CYP 3A4): less than 15% | LPS stimulated induction of NLRP3 and pro-IL-1β (TLR signalling; BMDM pre-treated, LPS 4 h, Western blot): not affected | LPS-induced (TLR4) TNF-α secretion (TLR signalling): did not affect | Poly(A:U)-induced (TLR3) TNF-α secretion (TLR signalling): did not affect | K+ efflux triggered by nigericin, ATP and SiO2 (K+ efflux): did not prevent | inhibition of CYP 2D6 (CYP 2D6): less than 15% | compound remaining after 60 min [5]: more than 70%

NLRC4-stimulated IL-1β secretion (NLRC4): attenuated | NLRC4-stimulated TNF-α secretion (NLRC4): attenuated | expression of pro-IL-1β (and pro-caspase-1) in cell lysates (NLRC4; Western blot): attenuated
Structure (SMILES): C=C1C(=O)O[C@H]2[C@H]1CC/C(C)=C/CC[C@@]1(C)O[C@@H]21 [parthenolide, reference compound]
LPS-induced (TLR4) TNF-α secretion (TLR signalling): abrogated | Poly(A:U)-induced (TLR3) TNF-α secretion (TLR signalling): abrogated

Source: paper PMC4392179 (Nature medicine, 2015)
